Columns and labels:
HT-29 cells = test: Cell cycle analysis (PI, flow cytometry), HT-29; format: cell-based, human
Protocol: (§1) MCF7, HeLa, and HT-29 cell cycle analyses were performed by quantifying the DNA content by flow cytometry. Cells in the exponential growth phase at 2 × 10^4 cells/mL were seeded in 24-well plates (1 ml/well). After 24 h incubation, cells were treated with compound 25 at 87.5 or 175 nM. After 24, 48, and 72 h treatments, live and dead cells were collected and fixed in ice-cold ethanol:PBS (7:3) and stored at 4 °C for later use. Cells were rehydrated with phosphate-buffered saline (PBS), treated with 100 µg/mL RNase A (Sigma-Aldrich Co., St. Louis, MO, USA), and stained overnight in darkness at room temperature with 50 µg/mL propidium iodide (PI) (Sigma-Aldrich Co.). Cell cycle profiles were then analysed by flow cytometry using BD Accuri™ C6 Plus Flow Cytometer (BD Biosciences, San José, CA, USA). Data were analysed with BD Accuri™ C6 Software (version 1.0.264.21, BD Biosciences, San José, CA, USA) and compared to control cells treated with 0.5% (v/v) DMSO. Compounds were dissolved in DMSO and the final solvent concentrations never exceeded 0.5% (v/v).

MCF7 cells [1] = test: Cell cycle analysis (PI, flow cytometry), MCF7; format: cell-based, human
Protocol: as §1

MCF7 cells [2] = test: Apoptotic cell death quantification (Annexin V-FITC/PI), MCF7; format: cell-based, human; settings: 72 h
Protocol: MCF7, HeLa, and HT-29 apoptotic cells were quantified using an Annexin V-FITC/PI apoptosis detection kit (Immunostep, Salamanca, Spain) according to the manufacturer’s guidelines. 1.5 ml/well of cells in the exponential growth phase at 2 × 10^4 cells/mL were seeded onto 12-well plates and left to attach overnight. After 24 h incubation, cells were treated with compound 25 at 87.5 or 175 nM. 72 h post-treatment, attached and floating cells of treated and untreated wells were collected, centrifuged, resuspended in the Annexin V binding buffer, and stained with Annexin V-FITC/PI. Cells were then incubated in darkness at room temperature for 15 min and a total of 30,000 cells were acquired and analysed using the BD Accuri™ C6 Plus Flow Cytometer and Software (version 1.0.264.21, BD Biosciences, San José, CA, USA), respectively. Compounds were dissolved in DMSO and the final solvent concentrations never exceeded 0.5% (v/v). Control wells included cells with 0.5% (v/v) DMSO.

[3] = test system: microtubule network of MCF7 cells; test: Immunofluorescence of microtubule network, MCF7; format: cell-based, human; settings: MCF7, 175 nM, 72 h, confocal microscopy
Protocol: MCF7, HeLa, and HT-29 cells were grown on round glass coverslips coated with poly-L-lysine (12 mm diameter). To reach appropriate cell confluence, coverslips were manipulated in 6-well plates (3 coverslips/well) seeding 3 ml/well of cells in the exponential growth phase at 2 × 10^4 cells/mL. After 24 h incubation, cells were treated with compound 25 at 175 nM and incubated for 72 h. Cells were washed with PBS, fixed with 4% formaldehyde in PBS for 10 min, permeabilized with 0.5% Triton X-100 (Boehringer Mannheim, Ingelheimam Rhein, Germany) in PBS for 10 min, and blocked with 10% BSA in PBS for 30 min. Then, coverslips were incubated with anti-α-tubulin mouse monoclonal antibody (diluted 1:200 in 3% BSA/PBS) (Sigma-Aldrich Co.) and anti-SQSTM1/p62 rabbit monoclonal antibody (diluted 1:100 in 3% BSA/PBS) (Abcam) for 1 h 30 min. After PBS washing, coverslips were incubated with fluorescent secondary antibodies Alexa Fluor 488 goat anti-mouse IgG and Alexa Fluor 594 anti-rabbit (both diluted 1:400 in 1% BSA/PBS) (Molecular Probes, Invitrogen, Thermo Fischer Scientific) for 1 h in darkness. […] Cells were analysed by confocal microscopy using a LEICA SP5 microscope DMI-6000V model coupled to a LEICA LAS AF software computer.

[4] = biological target: T1, microtubular protein isolated from calf brain (Bos taurus, UniProt P81947+Q6B856); test: Inhibition of tubulin polymerisation (turbidity); format: biochemical
T1 construct: isolated from calf brain according to the modified Shelanski method; from tissue; host or cells: calf brain
T1 sequence (Q6B856 whole entry): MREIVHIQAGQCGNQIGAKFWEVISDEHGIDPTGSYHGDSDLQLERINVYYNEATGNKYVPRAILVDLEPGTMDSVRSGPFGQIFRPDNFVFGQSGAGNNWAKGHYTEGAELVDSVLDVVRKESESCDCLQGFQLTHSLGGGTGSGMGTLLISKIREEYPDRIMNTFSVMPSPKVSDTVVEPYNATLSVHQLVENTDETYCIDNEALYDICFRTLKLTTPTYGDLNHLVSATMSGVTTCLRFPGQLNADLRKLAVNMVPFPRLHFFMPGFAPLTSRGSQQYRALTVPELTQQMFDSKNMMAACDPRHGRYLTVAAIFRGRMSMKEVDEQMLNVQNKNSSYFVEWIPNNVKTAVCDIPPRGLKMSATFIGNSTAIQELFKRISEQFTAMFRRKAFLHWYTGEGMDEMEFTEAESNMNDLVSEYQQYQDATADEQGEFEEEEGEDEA
T1 sequence (P81947 whole entry): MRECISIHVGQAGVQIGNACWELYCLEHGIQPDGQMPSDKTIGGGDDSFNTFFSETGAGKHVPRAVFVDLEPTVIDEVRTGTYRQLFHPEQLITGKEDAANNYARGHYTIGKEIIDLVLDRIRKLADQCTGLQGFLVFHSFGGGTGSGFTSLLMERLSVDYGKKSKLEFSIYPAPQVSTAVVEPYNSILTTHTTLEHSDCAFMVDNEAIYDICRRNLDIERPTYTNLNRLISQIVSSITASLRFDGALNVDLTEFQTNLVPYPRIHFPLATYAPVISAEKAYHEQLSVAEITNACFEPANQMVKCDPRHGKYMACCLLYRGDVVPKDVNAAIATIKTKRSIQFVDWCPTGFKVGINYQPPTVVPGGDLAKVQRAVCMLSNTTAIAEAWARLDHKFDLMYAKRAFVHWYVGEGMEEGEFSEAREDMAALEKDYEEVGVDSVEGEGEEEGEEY

[5] = HT-29, 48 h, concentration not specified
[6] = MCF7, 175 nM (higher dose), 48 h
[7] = MCF7, 175 nM (higher dose), 72 h

COc1ccc(S(=O)(=O)N(CC#N)c2cc(OC)c(Br)cc2OC)cc1 [Compound 25, N-(4-bromo-2,5-dimethoxyphenyl)-N-(cyanomethyl)-4-methoxybenzenesulphonamide]
Cells at G2/M phase (HT-29 cells; HT-29, 87.5 nM, 24 h): 90%
Cells at G2/M phase (HT-29 cells; HT-29, 87.5 nM, 72 h): 58%
subG0/G1 population (HT-29 cells; HT-29, 87.5 nM, 72 h): 23%
Cells at G2/M phase (HT-29 cells; HT-29, 175 nM, 24 h): 83%
Cells at G2/M phase (HT-29 cells; HT-29, 175 nM, 72 h): 54%
subG0/G1 population (HT-29 cells; HT-29, 175 nM, 72 h): 31%
Cells at G2/M phase (HT-29 cells; [5]): 84%
subG0/G1 population (HT-29 cells; [5]): 9%
Cells at G2/M phase (MCF7 cells [1]; MCF7, 87.5 nM, 24 h): 66%
subG0/G1 population (MCF7 cells [1]; MCF7, 87.5 nM, 24 h): 12%
Cells at G2/M phase (MCF7 cells [1]; [6]): 55%
subG0/G1 population (MCF7 cells [1]; [6]): 24%
Cells at G2/M phase (MCF7 cells [1]; [7]): 58%
subG0/G1 population (MCF7 cells [1]; [7]): 26%
Cells at G2/M phase (MCF7 cells [1]; MCF7, 175 nM, 24 h): 60%
subG0/G1 population (MCF7 cells [1]; MCF7, 175 nM, 24 h): 16%
Early apoptosis (MCF7 cells [2]; MCF7, 87.5 nM): 11.7%
Late apoptosis (MCF7 cells [2]; MCF7, 87.5 nM): 5.8%
Live (AnV–/PI–) (MCF7 cells [2]; MCF7, 87.5 nM): 82.1%
Necrosis (MCF7 cells [2]; MCF7, 87.5 nM): 0.5%
Apoptotic cells (MCF7 cells [2]; MCF7, 175 nM): 33%
Early apoptosis (MCF7 cells [2]; MCF7, 175 nM): 23.8%
Late apoptosis (MCF7 cells [2]; MCF7, 175 nM): 9.5%
Live (AnV–/PI–) (MCF7 cells [2]; MCF7, 175 nM): 65.7%
Necrosis (MCF7 cells [2]; MCF7, 175 nM): 1.0%
Apoptotic cells (MCF7 cells [2]; MCF7, lowest concentration (87.5 nM)): 18%
Effect on microtubule network [3]: disrupted the microtubule network
TPI % 10 µM ([4]; 10 µM compound, 1.5 mg/mL microtubular protein): 51%
IC50 ([4]; in vitro tubulin polymerisation inhibition, read-out: TPI IC50): 7.6 µM

From paper PMC8205030, “Methoxy and bromo scans on N-(5-methoxyphenyl) methoxybenzenesulphonamides reveal potent cytotoxic compounds, especially against the human breast adenocarcinoma MCF7 cell line” (Journal of Enzyme Inhibition and Medicinal Chemistry, 2021)
